Source: PMC7044277 (Nature Communications, 2020)
Several values for one entry are separate records, joined by “and”; a condition that tells them apart may be missing. Equal entries are not always repeated.

What was measured:
Format in all cases: cell-based
Design in all cases: GPCRome screening signal at PTGIR / GPCRome screening signal at PTH1R / GPCRome screening signal at PTH2R / GPCRome screening signal at QRFP / GPCRome screening signal at RXFP2 / GPCRome screening signal at RXFP3 / GPCRome screening signal at RXFP4 / GPCRome screening signal at S1PR2 / GPCRome screening signal at S1PR3 / GPCRome screening signal at S1PR4 / GPCRome screening signal at S1PR5 / GPCRome screening signal at SCTR / GPCRome screening signal at SSTR2 / GPCRome screening signal at SSSTR / GPCRome screening signal at SSTR4 / GPCRome screening signal at SSTR5 / GPCRome screening signal at SUCNR1 / GPCRome screening signal at TA1 / GPCRome screening signal at TAAR2 / GPCRome screening signal at TAAR5 / GPCRome screening signal at TAAR6 / GPCRome screening signal at TAAR8 / GPCRome screening signal at TACR1 / GPCRome screening signal at TACR2 / GPCRome screening signal at TACR3 / GPCRome screening signal at TBXA2R / GPCRome screening signal at TSHR / GPCRome screening signal at UTS2R / GPCRome screening signal at VIPR2 / GPCRome screening signal at GPR68 no V2 Tail / GPCRome screening signal at GRM2 / GPCRome screening signal at GRM3: reference not given here
[1] = biological target: T1, 320 non-olfactory GPCRs (Homo sapiens, UniProt P41587); conditions: receptor VIPR2
T1 construct: expressed in transfected cells; host or cells: HTLA cells

[2] = biological target: T2, 320 non-olfactory GPCRs (Homo sapiens, UniProt P32241); conditions: receptor VIPR1
T2 construct: expressed in transfected cells; host or cells: HTLA cells

[3] = biological target: T3, 320 non-olfactory GPCRs (Homo sapiens, UniProt Q8WXD0); conditions: receptor RXFP2
T3 construct: expressed in transfected cells; host or cells: HTLA cells

[4] = biological target: 320 non-olfactory GPCRs (Homo sapiens, UniProt Q99500); conditions: receptor S1PR3
[5] = Fig_5f, single replicate values
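Wherever GPCRome agonism screen response is given: fold over basal response of each receptor without drug.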

T1 sequence (P41587 24-438): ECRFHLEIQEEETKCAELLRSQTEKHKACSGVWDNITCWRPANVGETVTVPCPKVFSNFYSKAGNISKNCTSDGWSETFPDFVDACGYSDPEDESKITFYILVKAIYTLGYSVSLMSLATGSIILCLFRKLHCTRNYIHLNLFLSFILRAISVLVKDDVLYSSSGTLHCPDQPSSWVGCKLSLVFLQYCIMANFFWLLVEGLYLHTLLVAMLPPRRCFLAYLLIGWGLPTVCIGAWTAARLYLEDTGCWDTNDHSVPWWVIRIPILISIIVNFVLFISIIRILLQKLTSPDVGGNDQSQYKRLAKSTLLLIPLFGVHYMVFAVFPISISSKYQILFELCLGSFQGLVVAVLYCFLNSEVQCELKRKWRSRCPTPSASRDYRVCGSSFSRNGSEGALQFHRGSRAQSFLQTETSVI
T3 sequence (Q8WXD0 whole entry): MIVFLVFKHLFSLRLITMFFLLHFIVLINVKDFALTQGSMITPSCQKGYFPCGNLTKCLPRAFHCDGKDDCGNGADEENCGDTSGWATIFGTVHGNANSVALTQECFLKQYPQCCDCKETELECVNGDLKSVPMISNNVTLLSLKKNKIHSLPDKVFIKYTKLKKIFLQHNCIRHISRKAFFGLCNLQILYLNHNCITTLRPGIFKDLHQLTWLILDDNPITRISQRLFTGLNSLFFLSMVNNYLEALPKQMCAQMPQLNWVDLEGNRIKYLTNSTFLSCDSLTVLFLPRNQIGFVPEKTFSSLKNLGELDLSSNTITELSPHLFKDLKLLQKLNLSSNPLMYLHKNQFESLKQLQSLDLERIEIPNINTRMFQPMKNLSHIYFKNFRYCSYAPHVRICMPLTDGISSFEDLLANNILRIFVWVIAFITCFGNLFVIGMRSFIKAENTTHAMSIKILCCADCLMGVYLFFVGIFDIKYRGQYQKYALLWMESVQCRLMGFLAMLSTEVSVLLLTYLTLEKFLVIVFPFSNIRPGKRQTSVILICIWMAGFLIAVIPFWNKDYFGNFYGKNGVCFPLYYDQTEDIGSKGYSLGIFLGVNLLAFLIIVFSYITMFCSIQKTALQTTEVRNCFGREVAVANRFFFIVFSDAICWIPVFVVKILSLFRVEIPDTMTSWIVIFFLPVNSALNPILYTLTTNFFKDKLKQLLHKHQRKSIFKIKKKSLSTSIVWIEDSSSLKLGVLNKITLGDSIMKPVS
T2 sequence (P32241 31-457): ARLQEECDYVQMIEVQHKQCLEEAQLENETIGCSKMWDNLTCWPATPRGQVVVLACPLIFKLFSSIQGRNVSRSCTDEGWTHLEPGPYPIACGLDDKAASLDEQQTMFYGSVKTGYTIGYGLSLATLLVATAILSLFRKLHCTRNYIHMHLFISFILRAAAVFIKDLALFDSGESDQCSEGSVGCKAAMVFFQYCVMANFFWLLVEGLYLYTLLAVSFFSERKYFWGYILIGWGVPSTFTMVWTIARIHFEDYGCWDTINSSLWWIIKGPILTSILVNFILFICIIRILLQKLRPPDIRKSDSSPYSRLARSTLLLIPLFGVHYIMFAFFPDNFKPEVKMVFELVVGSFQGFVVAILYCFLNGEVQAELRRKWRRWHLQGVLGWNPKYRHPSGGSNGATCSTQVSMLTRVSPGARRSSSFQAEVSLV
320 non-olfactory GPCRs (Homo sapiens, UniProt Q99500), sequence (Q99500 whole entry): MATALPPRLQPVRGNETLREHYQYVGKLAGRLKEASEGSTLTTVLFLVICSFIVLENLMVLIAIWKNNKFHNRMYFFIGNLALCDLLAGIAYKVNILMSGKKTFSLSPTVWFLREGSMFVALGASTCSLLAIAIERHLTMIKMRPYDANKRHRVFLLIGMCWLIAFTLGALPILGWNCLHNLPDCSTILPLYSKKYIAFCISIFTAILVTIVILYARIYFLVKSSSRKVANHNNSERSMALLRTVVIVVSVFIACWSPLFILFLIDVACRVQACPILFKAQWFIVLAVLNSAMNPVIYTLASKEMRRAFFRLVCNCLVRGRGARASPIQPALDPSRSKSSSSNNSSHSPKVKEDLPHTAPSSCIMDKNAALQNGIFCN

CCOc1ccccc1CCC(C)NCC1(O)CCCCC1.Cl (racemic) [Fig_5f]
GPCRome screening signal at VIPR2 [1, 5]: 0.8302 and 1.005 and 0.9541 and 0.5143 | GPCRome screening signal at VIPR1 [2, 5]: 1.328 and 1.861 and 1.314 and 1.467 | GPCRome screening signal at RXFP2 [3, 5]: 1.049 and 1.08 and 1.42 and 0.7752 | GPCRome screening signal at S1PR3 [4, 5]: 1.578 and 1.076 and 2.206 and 1.217

CCOc1cccc2cc(C(C)NCC3(O)CCCCC3)oc12 (centres unmarked) [O4LE6]
GPCRome agonism screen response ([1]; replicate values, Fig_4g): 0.366 and 1.433 and 1.331 and 0.8644 | GPCRome agonism screen response ([2]; replicate values, Fig_4g): 0.8893 and 1.908 and 1.195 and 1.527 | GPCRome agonism screen response ([3]; replicate values, Fig_4g): 0.9912 and 0.8618 and 0.6803 and 0.6522 | GPCRome agonism screen response ([4]; replicate values, Fig_4g): 2.336 and 1.6343 and 1.172 and 1.379
